# In patent US9517224B2, “Methods of treating patients infected with HIV and HTLV” (THE UNITED STATES OF AMERICA, AS REPRESENTED BY THE …, priority 2012, dated 2016):
# System: PBMC's from normal volunteers
# Experiment: mRNA for IL-4, INF-gamma, TNF-alpha and CD69 in PBMCs from normal volunteers
# Type: cell-based
substance,measurement,value
ionomycine,"CD69 mRNA, relative fold difference versus untreated control",1.639 fold
same,"IFN-γ mRNA, relative fold difference versus untreated control",1.608 fold
same,"IL-4 mRNA, relative fold difference versus untreated control",0.716 fold
same,"TNF-α mRNA, relative fold difference versus untreated control",0.657 fold
